How the values were obtained:
[1] = tested on: C57B1/6J mice; experiment: Feed uptake of mice after a single subcutaneous injection of TCDD; format: in vivo; parameters: unit not given here
Protocol: (§1) Male C57B1/6J mice of 5 weeks old having the average weight of 18-22 g which had been bred in CRJ (Charles River in Japan) were purchased and used in this example as experimental animals. Those mice were acclimated under the constant breeding condition, i.e. the temperature of 24±1° C., the humidity of 60±10% and the light and darkness cycle of 12 hours, for one week and thereafter, utilized in the experiment.
(§2) The Experimental animals were supplied with Purina powdered feed (purchased from Hae Eun Trade) and supplied with water ad libitum. All the animals were weighed twice a week during experimentation.
(§3) 2,3,7,8-tetrachlorodibenzo-p-dioxin (TCDD) dissolved in toluene (purity of 95% or more as a result of gas chromatography analysis), manufactured by Chem. Services Inc. in USA, was volatilized with nitrogen to obtain powder. The obtained powder was dissolved in a mixed solvent containing acetone and corn oil with a volume ratio of 1:6. The resulting solution each containing 110, 27.5 and 6.9 μg/kg of TCDD was subcutaneously injected to mice at a volume of 5 ml per body weight. […] The mice were supplied with the feed from 10 days before (pre-administration) to 60 days after administration of TCDD (post-administration).
(§4) The results are expressed as Mean±Standard Deviation values. For statistical analysis of the body weight, feed and water uptake, biochemical findings, hematological findings and the weight of organ in an acute toxicity test, verification was performed by one way analysis of variance (ANOVA) in case of equal distribution. In case significance was recognized in ANOVA, the Student's t-test was performed in the levels of p<0.05 and p<0.01.

[2] = tested on: C57B1/6J mice; experiment: Water uptake of mice after a single subcutaneous injection of TCDD; format: in vivo; parameters: unit not given here
Protocol: as §1, §2, §3, §4

[3] = TCDD 110.0 μg/kg alone, 10 days
[4] = TCDD 110.0 μg/kg alone, 20 days
[5] = TCDD 110.0 μg/kg alone, 30 days

Clc1cc2c(cc1Cl)Oc1cc(Cl)c(Cl)cc1O2 [TCDD, 2,3,7,8-tetrachlorodibenzo-p-dioxin]
feed uptake ([1]; TCDD 6.9 μg/kg alone, 10 days): 4.76 ± 0.74 | feed uptake ([1]; TCDD 6.9 μg/kg alone, 20 days): 4.33 ± 0.84 | feed uptake ([1]; TCDD 6.9 μg/kg alone, 30 days): 4.97 ± 1.00 | feed uptake ([1]; TCDD 6.9 μg/kg alone, 40 days): 4.97 ± 1.00 | feed uptake ([1]; TCDD 6.9 μg/kg alone, 50 days): 3.51 ± 0.31 | feed uptake ([1]; TCDD 6.9 μg/kg alone, 60 days): 3.28 ± 1.56 | feed uptake ([1]; TCDD 27.5 μg/kg alone, 10 days): 3.86 ± 0.87 | feed uptake ([1]; TCDD 27.5 μg/kg alone, 20 days): 3.17 ± 1.68 | feed uptake ([1]; TCDD 27.5 μg/kg alone, 30 days): 2.37 ± 0.37 | feed uptake ([1]; TCDD 27.5 μg/kg alone, 40 days): 1.90 ± 0.27 | feed uptake ([1]; TCDD 27.5 μg/kg alone, 50 days): 1.50 ± 0.16 | feed uptake ([1]; TCDD 27.5 μg/kg alone, 60 days): 1.58 ± 0.32 | feed uptake [1, 3]: 4.19 ± 0.96 | feed uptake [1, 4]: 3.21 ± 1.13 | feed uptake [1, 5]: 3.88 ± 0.96 | feed uptake ([1]; TCDD 110.0 μg/kg alone, 40 days): 2.23 ± 0.56 | water uptake ([2]; TCDD 6.9 μg/kg alone, 10 days): 4.23 ± 0.52 | water uptake ([2]; TCDD 6.9 μg/kg alone, 20 days): 4.08 ± 0.72 | water uptake ([2]; TCDD 6.9 μg/kg alone, 30 days): 4.70 ± 0.42 | water uptake ([2]; TCDD 6.9 μg/kg alone, 40 days): 4.30 ± 0.42 | water uptake ([2]; TCDD 6.9 μg/kg alone, 50 days): 4.72 ± 0.39 | water uptake ([2]; TCDD 6.9 μg/kg alone, 60 days): 4.88 ± 0.17 | water uptake ([2]; TCDD 27.5 μg/kg alone, 10 days): 3.38 ± 0.75 | water uptake ([2]; TCDD 27.5 μg/kg alone, 20 days): 3.58 ± 0.14 | water uptake ([2]; TCDD 27.5 μg/kg alone, 30 days): 3.10 ± 0.14 | water uptake ([2]; TCDD 27.5 μg/kg alone, 40 days): 3.10 ± 0.14 | water uptake ([2]; TCDD 27.5 μg/kg alone, 50 days): 2.89 ± 0.63 | water uptake ([2]; TCDD 27.5 μg/kg alone, 60 days): 3.19 ± 0.21 | water uptake [2, 3]: 3.27 ± 0.78 | water uptake [2, 4]: 4.00 ± 0.66 | water uptake [2, 5]: 4.70 ± 0.42

Reference: patent US20040029965A1, “Formulations for reducing or eliminating toxicity of enviromental hormones containing ursodeoxycholic acid” (priority 2000, published 2004)
